Measured values published in ChEMBL document CHEMBL1201862, “PubChem BioAssay data set” (2004).
Calls of active or inactive are those of the source. Rule as the data show it, for most assays here: actives have a measured EC50 and inactives only a lower limit.

Experiments:
[1] = target: T1, Streptokinase A (Streptococcus pyogenes serotype M1, UniProt P10520); assay: viability-normalized secreted streptokinase activity reduction – plasminogen activation absorbance, OD405, dose response (AID 1914); assay type: functional, Streptococcus pyogenes M1 GAS;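 also: secreted streptokinase activity via plasminogen activation per viability signal from cell pellet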
T1 sequence (P10520 whole entry): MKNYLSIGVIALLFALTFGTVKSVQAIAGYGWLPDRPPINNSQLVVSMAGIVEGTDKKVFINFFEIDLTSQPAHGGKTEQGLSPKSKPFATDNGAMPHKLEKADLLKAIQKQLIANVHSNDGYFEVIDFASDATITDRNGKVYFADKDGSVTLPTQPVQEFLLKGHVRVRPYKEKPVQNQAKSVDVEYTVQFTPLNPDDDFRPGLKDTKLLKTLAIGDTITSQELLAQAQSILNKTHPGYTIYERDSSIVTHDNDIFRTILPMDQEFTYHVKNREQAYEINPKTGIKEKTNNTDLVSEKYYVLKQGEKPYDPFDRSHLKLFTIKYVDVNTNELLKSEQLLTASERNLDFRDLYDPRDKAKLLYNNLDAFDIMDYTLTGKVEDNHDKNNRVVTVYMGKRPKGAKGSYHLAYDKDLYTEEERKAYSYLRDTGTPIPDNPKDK

[2] = system: Streptococcus; assay: GAS UMAA2166 growth inhibition – luminescence, BacTiterGlo, counter-screen for streptokinase expression inhibitor project, dose response (AID 1915); assay type: functional, organism-based;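 also: potency for reduction of bacterial viability or growth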
[3] = target: T2, Replicative DNA helicase DnaB (Mycobacterium tuberculosis, UniProt P9WMR3); assay: DnaB intein splicing inhibitors, dose response, biochemical, cell-free fluorescence (AID 449749); assay type: functional
T2 sequence (P9WMR3 whole entry): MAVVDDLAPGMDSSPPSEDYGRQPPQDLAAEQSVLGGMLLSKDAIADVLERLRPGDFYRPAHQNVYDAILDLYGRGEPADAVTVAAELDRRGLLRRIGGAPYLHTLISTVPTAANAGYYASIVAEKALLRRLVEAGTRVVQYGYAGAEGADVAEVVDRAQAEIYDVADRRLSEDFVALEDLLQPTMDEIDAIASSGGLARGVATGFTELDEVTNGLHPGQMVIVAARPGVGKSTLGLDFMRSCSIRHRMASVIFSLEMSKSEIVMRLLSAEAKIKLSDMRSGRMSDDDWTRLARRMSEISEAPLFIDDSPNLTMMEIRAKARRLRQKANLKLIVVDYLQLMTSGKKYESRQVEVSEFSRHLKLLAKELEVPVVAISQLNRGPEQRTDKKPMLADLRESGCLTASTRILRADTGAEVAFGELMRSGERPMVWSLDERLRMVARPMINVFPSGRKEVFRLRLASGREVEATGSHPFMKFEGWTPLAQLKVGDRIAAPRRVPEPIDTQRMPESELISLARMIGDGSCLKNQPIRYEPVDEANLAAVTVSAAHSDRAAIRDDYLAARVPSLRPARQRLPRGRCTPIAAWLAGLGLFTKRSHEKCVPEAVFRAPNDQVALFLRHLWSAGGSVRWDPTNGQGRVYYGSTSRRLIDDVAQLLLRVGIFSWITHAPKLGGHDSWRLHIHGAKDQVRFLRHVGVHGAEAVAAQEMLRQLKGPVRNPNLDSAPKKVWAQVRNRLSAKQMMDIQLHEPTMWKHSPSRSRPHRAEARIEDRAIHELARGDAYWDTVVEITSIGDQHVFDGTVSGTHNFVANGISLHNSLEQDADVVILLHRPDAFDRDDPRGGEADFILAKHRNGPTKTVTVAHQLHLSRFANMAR

[4] = target: T3, Protein RecA (Mycobacterium tuberculosis, UniProt P9WHJ3); assay: Fluorescence Cell-Free Homogeneous Dose Retest to Identify Inhibitors of RecA-Intein Splicing Activity. [Related pubchem assays (depositor defined):AID2097, AID2223, AID489010, AID492950]; assay type: functional
T3 sequence (P9WHJ3 whole entry): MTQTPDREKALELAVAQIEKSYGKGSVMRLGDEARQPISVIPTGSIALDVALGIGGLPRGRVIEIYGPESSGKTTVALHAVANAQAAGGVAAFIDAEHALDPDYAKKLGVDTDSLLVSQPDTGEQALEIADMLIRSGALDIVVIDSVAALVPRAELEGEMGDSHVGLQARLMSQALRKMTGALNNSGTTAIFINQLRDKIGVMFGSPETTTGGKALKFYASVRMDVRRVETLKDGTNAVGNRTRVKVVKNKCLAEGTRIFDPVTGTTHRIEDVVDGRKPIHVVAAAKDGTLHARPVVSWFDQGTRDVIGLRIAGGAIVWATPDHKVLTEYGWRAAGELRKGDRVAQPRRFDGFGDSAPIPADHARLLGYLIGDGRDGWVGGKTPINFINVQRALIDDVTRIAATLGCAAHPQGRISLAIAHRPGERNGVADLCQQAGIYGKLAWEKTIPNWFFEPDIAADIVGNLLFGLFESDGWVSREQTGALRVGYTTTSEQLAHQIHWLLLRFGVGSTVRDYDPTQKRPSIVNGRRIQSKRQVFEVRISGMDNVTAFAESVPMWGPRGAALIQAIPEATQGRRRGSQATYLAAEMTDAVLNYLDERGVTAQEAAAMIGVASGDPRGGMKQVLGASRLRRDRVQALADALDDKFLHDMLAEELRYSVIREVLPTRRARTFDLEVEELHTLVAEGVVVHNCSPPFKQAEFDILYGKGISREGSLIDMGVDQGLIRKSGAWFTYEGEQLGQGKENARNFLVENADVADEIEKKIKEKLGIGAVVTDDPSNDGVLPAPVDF

SMILES: O=C(Nc1ccccc1)c1nnsc1[S+]([O-])c1ccc(Cl)cc1 (stereo not given)
- EC50 [1]: 1.06 µM (active)
- EC50 [2]: 3.79 µM (active)
- AC50 [3]: 964 nM (active)
- EC50 [4]: 5.92 µM (active)

SMILES: CC1OC(Nc2cccc3ccccc23)C(O)C(O)C1O (stereo not given)
- AC50 [3]: > 380000 nM (inactive)
- EC50 [4]: 75.1 µM (active)

SMILES: O=C1C=C(Nc2ccccc2)c2ccccc2C1=O
- EC50 [1]: > 150 µM (not active)
- EC50 [2]: 8.86 µM (active)
- AC50 [3]: 664 nM (active)
- EC50 [4]: 0.723 µM (active)
